Experimental data from US10562912B2 (C&C Research Laboratories, priority 2013, dated 2020).

Experiments:
Assay type in all cases: cell-based
STAT3 = target: T1, STAT3 (Homo sapiens, UniProt P40763); assay: STAT3 reporter gene assay (luciferase), LNCaP stable cell line (pSTAT3-TA-luc), IL-6 stimulation
T1 construct: plasmid pSTAT3-TA-luc), which contains a stably operating STAT3 promoter; endogenous in cells
Procedure, shortened: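 Cytotoxicity was run on a duplicate plate with CellTiter-Glo, while the other plate gave luciferase read-outs from lysed LNCaP pSTAT3-TA-luc reporter cells. Cells were treated with graded compound concentrations plus IL-6 (10 ng/mL final) for 24–48 h in 3% DCC-FBS medium. Unstimulated and stimulated wells served as negative and positive controls.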

LNCaP = assay: Cell growth inhibition assay, prostate cancer cell line LNCaP (medium with 10 ng/mL IL-6); settings: Homo sapiens, medium supplemented with 10 ng/mL of IL-6, 10,000 cells/well
DU-145 = assay: Cell growth inhibition assay, prostate cancer cell line DU-145; settings: Homo sapiens, DU-145 prostate cancer cell line
Procedure, shortened: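 Seed DU-145/HCT116 3,000 cells/well, SW626 5,000 cells/well; add compound dilution series; incubate 72–96 h, 37° C., 5% CO2; microscope check for precipitate; CellTiter-Glo, luminescence. Blank = no cells; vehicle = 0.1% DMSO.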

HEL92.1.7 = assay: Cell growth inhibition assay, blood cancer cell line HEL92.1.7; settings: Homo sapiens, HEL 92.1.7, HEL92.1.7 blood cancer cell line
Protocol: The inhibitory effects of the compounds of the present invention against the growth of cancer cells were evaluated as shown below. The cancer cell lines including stomach cancer cell line (AGS), breast cancer cell lines (MDA-MB-231, MDA-MB-468, and BT-549), prostate cancer cell lines (LNCaP and DU-145), colon cancer cell line (HCT116), ovarian cancer cell line (SW626), liver cancer cell line (Hep3B), kidney cancer cell line (ACHN), lung cancer cell line (NCI-H23) and blood cancer cell lines (HEL92.1.7 and U266) were cultured under the protocol provided by each supplier. A medium supplemented with 10 ng/mL of IL-6 was used for LNCaP, a prostate cancer cell line, when treated with a drug. Each type of cells to be used in experiments were sub-cultured in a 96-well plate by counting the exact number of cells using Tali™ Image-based Cytometer (Life Technologies). In a 96-well plate, AGS, HCT116, and DU-145 were employed with 3,000 cells/well; NCI-H23, SW626, Hep3B, ACHN, BT-549, MDA-MB-231, HEL92.1.7, and U266 were employed with 5,000 cells/well; and LNCaP and MDA-MB-468 were employed with 10,000 cells/well. The cells were treated with the compounds listed in Examples which were diluted in various concentrations. Upon completion of the compounds treatment, AGS, HCT116, SW626, DU145, NCI-H23, Hep3B, ACHN, BT-549, LNCaP, HEL92.1.7, and U266 cells were cultured at 37° C. under 5% CO2 for from 72 to 96 hours, and MDA-MB-231 and MDA-MB-468 cells were cultured at 37° C. in air for from 72 to 96 hours. Subsequently, the cells were observed under microscope and drug precipitation and particular findings were investigated and recorded. And then, the 96-well plate was placed at room temperature for 30 minutes, added with 20 μL/well of CellTiter-Glo solution (Cat No. G7573, Promega) and shaken for 10 minutes, followed by being subjected to the measurement using PHERAstar™ microplate reader (BMG LABTECH) according to the supplier's general luminometer protocol. Wells where only culture liquid added without cell plating were used as a negative control, whereas wells where culture liquid containing 0.1% DMSO instead of the compounds listed in Examples were used as a positive control.

T1 sequence (P40763 whole entry): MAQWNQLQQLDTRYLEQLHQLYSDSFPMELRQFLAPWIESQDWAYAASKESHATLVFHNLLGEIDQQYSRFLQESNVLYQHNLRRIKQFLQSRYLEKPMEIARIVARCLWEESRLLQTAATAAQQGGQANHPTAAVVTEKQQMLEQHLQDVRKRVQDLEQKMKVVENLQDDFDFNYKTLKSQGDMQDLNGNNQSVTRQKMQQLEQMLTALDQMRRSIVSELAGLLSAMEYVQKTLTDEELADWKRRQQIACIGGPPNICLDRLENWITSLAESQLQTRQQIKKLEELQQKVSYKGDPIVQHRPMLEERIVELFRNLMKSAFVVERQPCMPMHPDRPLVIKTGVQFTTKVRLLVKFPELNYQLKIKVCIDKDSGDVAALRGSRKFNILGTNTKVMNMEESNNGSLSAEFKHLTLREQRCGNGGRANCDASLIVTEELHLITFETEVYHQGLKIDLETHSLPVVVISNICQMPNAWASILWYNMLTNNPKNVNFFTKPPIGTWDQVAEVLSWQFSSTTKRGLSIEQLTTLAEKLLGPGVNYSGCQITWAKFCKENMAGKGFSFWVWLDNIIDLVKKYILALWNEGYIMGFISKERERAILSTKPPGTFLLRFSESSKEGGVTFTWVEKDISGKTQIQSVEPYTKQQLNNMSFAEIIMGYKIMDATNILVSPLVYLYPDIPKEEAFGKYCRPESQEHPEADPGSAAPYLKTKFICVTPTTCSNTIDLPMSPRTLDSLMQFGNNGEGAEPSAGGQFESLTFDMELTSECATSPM

Compound | IC50 (STAT3) [µM] | IC50 (LNCaP) [µM] | IC50 (DU-145) [µM] | IC50 (HEL92.1.7) [µM]
CC(C)Oc1cc(OC(F)(F)F)cc(C(C)(C)c2cc(Cl)cc(NC(=O)c3cc4cc(NS(C)(=O)=O)c(F)cc4s3)c2)c1 [Example 84, N-(3-chloro-5-(2-(3-isopropoxy-5-(trifluoromethoxy)phenyl)propan-2-yl)phenyl)-6-fluoro-5-(methylsulfonamido)benzo[b]thiophene-2-carboxamide] | 0.004 | 0.008 | 0.002 | 0.014
CC(C)(c1cc(F)cc(NC(=O)c2cc3cc(NS(C)(=O)=O)ccc3s2)c1)c1cc(OC(F)(F)F)cc(OC(F)(F)C(F)F)c1 [Example 85, N-(3-fluoro-5-(2-(3-(1,1,2,2-tetrafluoroethoxy)-5-(trifluoromethoxy)phenyl)propan-2-yl)phenyl)-5-(methylsulfonamido)benzo[b]thiophene-2-carboxamide] | 0.016 | 0.025 | 0.007 | 0.076
CC(C)(c1cc(F)cc(NC(=O)c2cc3cc(NS(C)(=O)=O)ncc3s2)c1)c1cc(OC(F)(F)F)cc(OC(F)(F)C(F)F)c1 [Example 86, N-(3-fluoro-5-(2-(3-(1,1,2,2-tetrafluoroethoxy)-5-(trifluoromethoxy)phenyl)propan-2-yl)phenyl)-5-(methylsulfonamido)thieno[2,3-c]pyridine-2-carboxamide] | 0.072 | 0.075 | 0.047 | 0.23
CC(C)(c1cc(Br)cc(NC(=O)c2cc3cc(NS(C)(=O)=O)ccc3s2)c1)c1cc(OC(F)(F)F)cc(OC(F)(F)C(F)F)c1 [Example 87, N-(3-bromo-5-(2-(3-(1,1,2,2-tetrafluoroethoxy)-5-(trifluoromethoxy)phenyl)propan-2-yl)phenyl)-5-(methylsulfonamido)benzo[b]thiophene-2-carboxamide] | 0.016 | 0.028 | 0.009 | 0.091
CC(C)(c1cc(Cl)cc(NC(=O)c2cc3cc(NS(C)(=O)=O)ccc3s2)c1)c1cc(OCC(F)(F)F)cc(OC(F)(F)F)c1 [Example 88, N-(3-chloro-5-(2-(3-(2,2,2-trifluoroethoxy)-5-(trifluoromethoxy)phenyl)propan-2-yl)phenyl)-5-(methylsulfonamido)benzo[b]thiophene-2-carboxamide] | 0.015 | 0.024 | 0.008 | 0.087
CC(C)(c1cc(Br)cc(NC(=O)c2cc3cc(NS(C)(=O)=O)ncc3s2)c1)c1cc(OC(F)(F)F)cc(OC(F)(F)C(F)F)c1 [Example 89, N-(3-bromo-5-(2-(3-(1,1,2,2-tetrafluoroethoxy)-5-(trifluoromethoxy)phenyl)propan-2-yl)phenyl)-5-(methylsulfonamido)thieno[2,3-c]pyridine-2-carboxamide] | 0.047 | 0.07 | 0.048 | 0.22
CC(C)(c1cc(Cl)cc(NC(=O)c2cc3cc(NS(C)(=O)=O)ccc3s2)c1)c1cc(OCCN2CCOCC2)cc(OC(F)(F)F)c1 [Example 90, N-(3-chloro-5-(2-(3-(2-morpholinoethoxy)-5-(trifluoromethoxy)phenyl)propan-2-yl)phenyl)-5-(methylsulfonamido)benzo[b]thiophene-2-carboxamide] | 0.043 | 0.22 | 0.048 | 0.23
CC(C)Oc1cc(Br)cc(C(C)(C)c2cc(Cl)cc(NC(=O)c3cc4cc(NS(C)(=O)=O)ccc4s3)c2)c1 [Example 91, N-(3-(2-(3-bromo-5-isopropoxyphenyl)propan-2-yl)-5-chlorophenyl)-5-(methylsulfonamido)benzo[b]thiophene-2-carboxamide] | 0.032 | 0.056 | 0.012 | 0.078
CC(C)Oc1cc(Cl)cc(C(C)(C)c2cc(Cl)cc(NC(=O)c3cc4cc(NS(C)(=O)=O)ccc4s3)c2)c1 [Example 92, N-(3-chloro-5-(2-(3-chloro-5-isopropoxyphenyl)propan-2-yl)phenyl)-5-(methylsulfonamido)benzo[b]thiophene-2-carboxamide] | 0.067 | 0.071 | 0.017 | 0.1
